ChEMBL document CHEMBL4152339, “Design and synthesis of novel 1H-tetrazol-5-amine based potent antimicrobial agents: DNA topoisomerase IV and gyrase affinity evaluation supported by molecular docking studies” (Eur J Med Chem, 2018)
pIC50: −log10 of the molar value. In brackets after ≈: the same amount, converted by molar mass.

Experiments:
Escherichia coli [1] = assay: Antibacterial activity against Escherichia coli ML 5 after 18 hrs by CLSI disc diffusion method; format: functional; details: ML 5, 18 h
Pseudomonas aeruginosa [2] = assay: Antibacterial activity against Pseudomonas aeruginosa 18m after 18 hrs by CLSI disc diffusion method; format: functional
Pseudomonas aeruginosa [3] = assay: Antibacterial activity against Pseudomonas aeruginosa 31m after 18 hrs by CLSI disc diffusion method; format: functional
[4] = system: Staphylococcus epidermidis; assay: Antibacterial activity against Staphylococcus epidermidis 511 after 18 hrs by CLSI disc diffusion method; format: functional; details: Staphylococcus epidermidis, 511, 18 h
Escherichia coli [5] = assay: Antibacterial activity against Escherichia coli ML 9 after 18 hrs by CLSI disc diffusion method; format: functional; details: ML 9, 18 h
[6] = system: Staphylococcus epidermidis; assay: Antibacterial activity against Staphylococcus epidermidis 432 after 18 hrs by CLSI disc diffusion method; format: functional; details: Staphylococcus epidermidis, 432, 18 h
Staphylococcus aureus [7] = assay: Antibacterial activity against Staphylococcus aureus 537 after 18 hrs by CLSI disc diffusion method; format: functional; details: Staphylococcus aureus, 537, 18 h
[8] = system: Staphylococcus epidermidis; assay: Antibacterial activity against Staphylococcus epidermidis 471 after 18 hrs by CLSI disc diffusion method; format: functional; details: Staphylococcus epidermidis, 471, 18 h
Pseudomonas aeruginosa [9] = assay: Antibacterial activity against Pseudomonas aeruginosa 12m after 18 hrs by CLSI disc diffusion method; format: functional
Staphylococcus aureus [10] = assay: Antibacterial activity against Staphylococcus aureus 572 after 18 hrs by CLSI disc diffusion method; format: functional; details: Staphylococcus aureus, 572, 18 h
Escherichia coli [11] = assay: Antibacterial activity against Escherichia coli ML 16 after 18 hrs by CLSI disc diffusion method; format: functional; details: ML 16, 18 h
Micrococcus luteus [12] = assay: Antibacterial activity against Micrococcus luteus ATCC 10240 after 18 hrs by CLSI disc diffusion method; format: functional; details: ATCC 10240, 18 h
Pseudomonas aeruginosa [13] = assay: Antibacterial activity against Pseudomonas aeruginosa 11m after 18 hrs by CLSI disc diffusion method; format: functional
[14] = system: Staphylococcus epidermidis; assay: Antibacterial activity against Staphylococcus epidermidis ATCC 35984 after 18 hrs by CLSI […] method; format: functional; details: ATCC 35984, 18 h
Staphylococcus aureus [15] = assay: Antibacterial activity against Staphylococcus aureus 586 after 18 hrs by CLSI disc diffusion method; format: functional; details: Staphylococcus aureus, 586, 18 h
Escherichia coli [16] = assay: Antibacterial activity against Escherichia coli ML 12 after 18 hrs by CLSI disc diffusion method; format: functional; details: ML 12, 18 h
Staphylococcus aureus [17] = assay: Antibacterial activity against Staphylococcus aureus 585 after 18 hrs by CLSI disc diffusion method; format: functional; details: Staphylococcus aureus, 585, 18 h
[18] = Inhibition of Staphylococcus aureus DNA topoisomerase 4 using Kinetoplast DNA as substrate after 30 mins by ethidium bromide staining based agarose gel electrophoresis method
Enterococcus hirae = assay: Antibacterial activity against Enterococcus hirae ATCC 10541 after 18 hrs by CLSI disc diffusion method; format: functional; details: ATCC 10541, 18 h
[19] = Selectivity index, ratio of IC50 for human HaCaT cells to MIC for Staphylococcus aureus NCTC 4163; format: toxicity; details: read-out: Selectivity Index
[20] = Selectivity index, ratio of IC50 for human HaCaT cells to MIC for Bacillus subtilis ATCC 6633; format: toxicity; details: read-out: Selectivity Index
Escherichia coli [21] = assay: Antibacterial activity against Escherichia coli ML 17 after 18 hrs by CLSI disc diffusion method; format: functional; details: ML 17, 18 h
[22] = system: Staphylococcus epidermidis; assay: Antibacterial activity against Staphylococcus epidermidis 431 after 18 hrs by CLSI disc diffusion method; format: functional; details: Staphylococcus epidermidis, 431, 18 h
HaCaT = assay: Cytotoxicity activity against human HaCaT cells assessed as reduction in cell viability after 72 hrs by MTT assay; format: cell-based
Pseudomonas aeruginosa [23] = assay: Antibacterial activity against Pseudomonas aeruginosa ATCC 15442 after 18 hrs by CLSI disc diffusion method; format: functional; details: ATCC 15442, 18 h
Escherichia coli [24] = assay: Antibacterial activity against Escherichia coli ML 8 after 18 hrs by CLSI disc diffusion method; format: functional; details: ML 8, 18 h
[25] = Selectivity index, ratio of IC50 for human HaCaT cells to MIC for Enterococcus hirae ATCC 10541; format: toxicity; details: read-out: Selectivity Index
[26] = Selectivity index, ratio of IC50 for human HaCaT cells to MIC for Bordetella bronchiseptica ATCC 4617; format: toxicity; details: read-out: Selectivity Index
[27] = system: Staphylococcus epidermidis; assay: Antibacterial activity against Staphylococcus epidermidis 423 after 18 hrs by CLSI disc diffusion method; format: functional; details: Staphylococcus epidermidis, 423, 18 h
Pseudomonas aeruginosa [28] = assay: Antibacterial activity against Pseudomonas aeruginosa 16m after 18 hrs by CLSI disc diffusion method; format: functional
[29] = Selectivity index, ratio of IC50 for human HaCaT cells to MIC for Escherichia coli ATCC 10538; format: toxicity; details: read-out: Selectivity Index
Staphylococcus aureus [30] = assay: Antibacterial activity against Staphylococcus aureus ATCC 25923 after 18 hrs by CLSI disc diffusion method; format: functional; details: ATCC 25923, 18 h
Proteus vulgaris = assay: Antibacterial activity against Proteus vulgaris NCTC 4635 after 18 hrs by CLSI disc diffusion method; format: functional; details: NCTC 4635, 18 h
Escherichia coli [31] = assay: Antibacterial activity against Escherichia coli ML 15 after 18 hrs by CLSI disc diffusion method; format: functional; details: ML 15, 18 h
Staphylococcus aureus [32] = assay: Antibacterial activity against Staphylococcus aureus 498 after 18 hrs by CLSI disc diffusion method; format: functional; details: Staphylococcus aureus, 498, 18 h
[33] = system: Staphylococcus epidermidis; assay: Antibacterial activity against Staphylococcus epidermidis ATCC 12228 after 18 hrs by CLSI disc diffusion method; format: functional; details: ATCC 12228, 18 h
[34] = Selectivity index, ratio of IC50 for human HaCaT cells to MIC for Proteus vulgaris NCTC 4635; format: toxicity; details: read-out: Selectivity Index
[35] = system: Bordetella bronchiseptica; assay: Antibacterial activity against Bordetella bronchiseptica ATCC 4617 after 18 hrs by CLSI disc diffusion method; format: functional; details: ATCC 4617, 18 h
Escherichia coli [36] = assay: Antibacterial activity against Escherichia coli ATCC 10538 after 18 hrs by CLSI disc diffusion method; format: functional; details: ATCC 10538, 18 h
Pseudomonas aeruginosa [37] = assay: Antibacterial activity against Pseudomonas aeruginosa 10m after 18 hrs by CLSI disc diffusion method; format: functional
[38] = Selectivity index, ratio of IC50 for human HaCaT cells to MIC for Micrococcus luteus ATCC 10240; format: toxicity; details: read-out: Selectivity Index
A549 = assay: Cytotoxicity activity against human A549 cells assessed as reduction in cell viability after 72 hrs by MTT assay; format: cell-based; details: A549, 72 h
Enterococcus faecalis = assay: Antibacterial activity against Enterococcus faecalis ATCC 29212 after 18 hrs by CLSI disc diffusion method; format: functional; details: ATCC 29212, 18 h
Staphylococcus aureus [39] = assay: Antibacterial activity against Staphylococcus aureus 497 after 18 hrs by CLSI disc diffusion method; format: functional; details: Staphylococcus aureus, 497, 18 h
[40] = system: Staphylococcus epidermidis; assay: Antibacterial activity against Staphylococcus epidermidis 510 after 18 hrs by CLSI disc diffusion method; format: functional; details: Staphylococcus epidermidis, 510, 18 h
Pseudomonas aeruginosa [41] = assay: Antibacterial activity against Pseudomonas aeruginosa 6m after 18 hrs by CLSI disc diffusion method; format: functional
Escherichia coli [42] = assay: Antibacterial activity against Escherichia coli ML 6 after 18 hrs by CLSI disc diffusion method; format: functional; details: ML 6, 18 h
Micrococcus luteus [43] = assay: Antibacterial activity against Micrococcus luteus ATCC 9341 after 18 hrs by CLSI disc diffusion method; format: functional; details: ATCC 9341, 18 h
Bacillus cereus = assay: Antibacterial activity against Bacillus cereus ATCC 11778 after 18 hrs by CLSI disc diffusion method; format: functional; details: ATCC 11778, 18 h
Pseudomonas aeruginosa [44] = assay: Antibacterial activity against Pseudomonas aeruginosa ATCC 27853 after 18 hrs by CLSI disc diffusion method; format: functional; details: ATCC 27853, 18 h
[45] = system: Staphylococcus epidermidis; assay: Antibacterial activity against Staphylococcus epidermidis 469 after 18 hrs by CLSI disc diffusion method; format: functional; details: Staphylococcus epidermidis, 469, 18 h
Pseudomonas aeruginosa [46] = assay: Antibacterial activity against Pseudomonas aeruginosa 7m after 18 hrs by CLSI disc diffusion method; format: functional
Staphylococcus aureus [47] = assay: Antibacterial activity against Staphylococcus aureus 496 after 18 hrs by CLSI disc diffusion method; format: functional; details: Staphylococcus aureus, 496, 18 h
Staphylococcus aureus [48] = assay: Antibacterial activity against Staphylococcus aureus ATCC 6538 after 18 hrs by CLSI disc diffusion method; format: functional; details: ATCC 6538, 18 h
Bacillus spizizenii = assay: Antibacterial activity against Bacillus subtilis ATCC 6633 after 18 hrs by CLSI disc diffusion method; format: functional; details: ATCC 6633, 18 h
Staphylococcus aureus [49] = assay: Antibacterial activity against Staphylococcus aureus 495 after 18 hrs by CLSI disc diffusion method; format: functional; details: Staphylococcus aureus, 495, 18 h
[50] = system: Staphylococcus epidermidis; assay: Antibacterial activity against Staphylococcus epidermidis 433 after 18 hrs by CLSI disc diffusion method; format: functional; details: Staphylococcus epidermidis, 433, 18 h
Staphylococcus aureus [51] = assay: Antibacterial activity against Staphylococcus aureus NCTC 4163 after 18 hrs by CLSI disc diffusion method; format: functional; details: NCTC 4163, 18 h

With Cc1ccc(-n2nnnc2NCc2ccco2)cc1Cl the MIC (Escherichia coli [1]) was 14 µM (≈ 4.06 µg/mL), the MIC (Pseudomonas aeruginosa [2]) was 28 µM (≈ 8.11 µg/mL) and the MIC (Pseudomonas aeruginosa [3]) was 14 µM (≈ 4.06 µg/mL). The MIC [4] was 14 µM (≈ 4.06 µg/mL), the MIC (Escherichia coli [5]) was 28 µM (≈ 8.11 µg/mL) and the MIC [6] was 14 µM (≈ 4.06 µg/mL). It also gave an MIC (Staphylococcus aureus [7]) of 14 µM (≈ 4.06 µg/mL), an MIC [8] of 14 µM (≈ 4.06 µg/mL) and an MIC (Pseudomonas aeruginosa [9]) of 14 µM (≈ 4.06 µg/mL). For the same compound, the MIC (Staphylococcus aureus [10]) was 14 µM (≈ 4.06 µg/mL), the MIC (Escherichia coli [11]) was 14 µM (≈ 4.06 µg/mL) and the MIC (Micrococcus luteus [12]) was 7 µM (≈ 2.03 µg/mL). The MIC (Pseudomonas aeruginosa [13]) was 28 µM (≈ 8.11 µg/mL), the MIC [14] was 7 µM (≈ 2.03 µg/mL) and the MIC (Staphylococcus aureus [15]) was 14 µM (≈ 4.06 µg/mL). The MIC (Escherichia coli [16]) was 111 µM (≈ 32.2 µg/mL), the MIC (Staphylococcus aureus [17]) was 7 µM (≈ 2.03 µg/mL) and the IC50 [18] was 11.9 µg/mL (≈ 41.1 µM). For the same compound, the MIC (Enterococcus hirae) was 28 µM (≈ 8.11 µg/mL), the selectivity ratio [19] was 5.71 and the selectivity ratio [20] was 11.4. It also gave an MIC (Escherichia coli [21]) of 14 µM (≈ 4.06 µg/mL), an MIC [22] of 7 µM (≈ 2.03 µg/mL) and a pIC50 (HaCaT) of 4.10. For the same compound, the MIC (Pseudomonas aeruginosa [23]) was 111 µM (≈ 32.2 µg/mL), the MIC (Escherichia coli [24]) was 14 µM (≈ 4.06 µg/mL) and the selectivity ratio [25] was 2.85. The selectivity ratio [26] was 11.4, the MIC [27] was 7 µM (≈ 2.03 µg/mL) and the MIC (Pseudomonas aeruginosa [28]) was 28 µM (≈ 8.11 µg/mL). For the same compound, the selectivity ratio [29] was 11.4, the MIC (Staphylococcus aureus [30]) was 14 µM (≈ 4.06 µg/mL) and the MIC (Proteus vulgaris) was 14 µM (≈ 4.06 µg/mL). The MIC (Escherichia coli [31]) was 111 µM (≈ 32.2 µg/mL), the MIC (Staphylococcus aureus [32]) was 7 µM (≈ 2.03 µg/mL) and the MIC [33] was 7 µM (≈ 2.03 µg/mL). For the same compound, the selectivity ratio [34] was 11.4, the MIC [35] was 14 µM (≈ 4.06 µg/mL) and the MIC (Escherichia coli [36]) was 14 µM (≈ 4.06 µg/mL). The MIC (Pseudomonas aeruginosa [37]) was 14 µM (≈ 4.06 µg/mL), the selectivity ratio [38] was 11.4 and the pIC50 (A549) was 4.11. The MIC (Enterococcus faecalis) was 56 µM (≈ 16.2 µg/mL), the MIC (Staphylococcus aureus [39]) was 7 µM (≈ 2.03 µg/mL) and the MIC [40] was 14 µM (≈ 4.06 µg/mL). It also gave an MIC (Pseudomonas aeruginosa [41]) of 14 µM (≈ 4.06 µg/mL), an MIC (Escherichia coli [42]) of 111 µM (≈ 32.2 µg/mL) and an MIC (Micrococcus luteus [43]) of 14 µM (≈ 4.06 µg/mL). It also gave an MIC (Bacillus cereus) of 7 µM (≈ 2.03 µg/mL), an MIC (Pseudomonas aeruginosa [44]) of 14 µM (≈ 4.06 µg/mL) and an MIC [45] of 7 µM (≈ 2.03 µg/mL). The MIC (Pseudomonas aeruginosa [46]) was 14 µM (≈ 4.06 µg/mL), the MIC (Staphylococcus aureus [47]) was 14 µM (≈ 4.06 µg/mL) and the MIC (Staphylococcus aureus [48]) was 7 µM (≈ 2.03 µg/mL). The MIC (Bacillus spizizenii) was 7 µM (≈ 2.03 µg/mL), the MIC (Staphylococcus aureus [49]) was 7 µM (≈ 2.03 µg/mL) and the MIC [50] was 14 µM (≈ 4.06 µg/mL). It also gave an MIC (Staphylococcus aureus [51]) of 14 µM (≈ 4.06 µg/mL).

For O=C(O)c1cn(C2CC2)c2cc(N3CCNCC3)c(F)cc2c1=O [CIPROFLOXACIN], the IC50 [18] was 1.7 µg/mL (≈ 5.13 µM).
